In patent US20140248342A1, “Fe(III) 2,4-Dioxo-1-Carbonyl Complexes For Treatment And Prophylaxis Of Iron Deficiency Symptoms And Iron Deficiency Anaemias” (Vifor (International) AG, priority 2011, published 2014):
Read-outs that look alike come from different tables or passages of the source.

Key:
[1] = system: Male NMRI (SPF) mice fed a low-iron diet; assay: Iron utilization in mouse model (low-iron diet, hemoglobin and body weight increase); type: in vivo; details: stomach tube, 2 mg iron/kg body weight/day, days 1-5 and 8-12; utilization on day 15 calculated from hemoglobin and body weight increase
Description: The excellent Fe utilizations that can be accomplished through the Fe complexes according to the invention were measured by means of the following mouse model.
Male NMRI (SPF) mice (approximately 3 weeks old) were fed a low-iron diet (approx. 5 ppm iron) for approximately 3 weeks. The iron complexes were then administered to them by means of a stomach tube (2 mg iron/kg body weight/day) 2 times a day for 5 days, with an interruption of 2 days (days 1-5 and 8-12). Utilization on day 15 was calculated from the hemoglobin increase and the body weight increase in accordance with the formula
0.07=Factor for 70 ml blood per kg body weight (BW)
Hb1=Hemoglobin level (g/l) on day 1 Hb2(3)=Hemoglobin level (g/l) on day 8 (or 15) BW4=body weight (g) on day 1 BW9(14)=body weight (g) on day 8 (or 15) Hb1 Control=average hemoglobin level (g/l) on day 1 in the control group, Hb2(3) Control=average hemoglobin level (g/l) on day 8 (or 15) in the control group, BW4 Control=average body weight (g) on day 1 in the control group, BW9(14) Control=average body weight (g) on day 8 (or 15) in the control group, Fe Dos.=entire administered iron (mg Fe) over 5 or 10 days,
Δ Utilization=Fe tot. utilized (examined group)−Fe ut. Control group, utilized from food, (mg Fe)

Sprague-Dawley rats [2] = details: cited from earlier work; for toxicity in animal studies (in words): literature report London, Smith 1983
Sprague-Dawley rats [3] = assay: Toxicity compared with Fe(acac)3: oral administration, single dose, observation until 24 h; type: in vivo; details: for Number of dead animals after 24 h / animals still alive after 24 hours: 6 Sprague-Dawley rats; for toxicological findings after 24 hours: Sprague-Dawley rats
Source text: The toxicity of the novel iron complex compounds was compared with that of tris(acetylacetonate)iron.

## Tris-(1-(morpholin-4-yl)pentane-1,2,4-trione)-iron(III)-complex [Example 12]
[1]
  Utilization n 15 d (abs. %): 75 abs. %

## Tris-(ethyl oxo(2-oxocyclopentyl)acetate)-iron(III)-complex [Example 5]
[1]
  Utilization n 15 d (abs. %): 59 abs. %

## CC(=O)/C=C(/C)[O-].CC(=O)/C=C(/C)[O-].CC(=O)/C=C(/C)[O-].[Fe+3] [Fe(Acac)3, tris(acetylacetonate)iron]
Sprague-Dawley rats [2]
  toxicity in animal studies (in words): highly toxic
Sprague-Dawley rats [2]; listed as iron(III)-(acetylacetonate)3
  toxicity in animal studies (in words): very toxic
Sprague-Dawley rats [2]; single oral dose 1000 mg/kg iron complex (160 mg/kg iron), 10 animals, Lit. 1
  Number of dead animals after 24 h: 6

## Tris-(N,N,5,-trimethyl-2,4-dioxohexanamid)-iron(III)-complex [Example 9]
[1]
  Utilization n 15 d (abs. %): 89 abs. %

## Tris-(methyl 2,4-dioxopentanoate)-iron(III)-complex [Example 2]
[1]
  Utilization n 15 d (abs. %): 94 abs. %

## Tris-(ethyl oxo(2-oxocyclohexyl)acetate)-iron(III)-complex [Example 6]
[1]
  Utilization n 15 d (abs. %): 65 abs. %

## Tris-(2,4-dioxopentanamide)-iron(III)-complex [Example 3]
[1]
  Utilization n 15 d (abs. %): 82 abs. %
Sprague-Dawley rats [3]; single oral dose 1400 mg/kg iron complex (170 mg/kg iron)
  Number of dead animals after 24 h: 0
Sprague-Dawley rats [3]; single oral dose 1400 mg/kg
  animals still alive after 24 hours: 6
  toxicological findings after 24 hours: absolutely no toxicological findings

## Tris-(5-methyl-1-(morpholin-4-yl)hexane-1,2,4-trione)-iron(III)-complex [Example 11]
[1]
  Utilization n 15 d (abs. %): 51 abs. %

## Tris-(N,N,5,5-tetramethyl-2,4-dioxohexanamide)-iron(III)-complex [Example 8]
[1]
  Utilization n 15 d (abs. %): 72 abs. %

## Tris-(ethyl 2,4-dioxopentanoate)-iron(III)-complex [Example 1]
[1]
  Utilization n 15 d (abs. %): 106 abs. %
Sprague-Dawley rats [3]; single oral dose 1600 mg/kg iron complex (170 mg/kg iron)
  Number of dead animals after 24 h: 0
Sprague-Dawley rats [3]; single oral dose 1600 mg/kg
  animals still alive after 24 hours: 6
  toxicological findings after 24 hours: absolutely no toxicological findings
